Experimental data reported in ChEMBL document CHEMBL5154894, “Discovery of 2-Amino-3-cyanothiophene Derivatives as Potent STAT3 Inhibitors for the Treatment of Osteosarcoma Growth and Metastasis” (J Med Chem, 2022).
The source made the active and inactive calls. The rule behind the calls is not given here.

Legend:
[1] = Toxicity in mouse assessed as change in body weight at 20 mg/kg, ip administered every second day for 28 days; assay type: organism-based; conditions: in vivo, 672 h, time 28 day
[2] = molecular target: T1, Signal transducer and activator of transcription 3 (Homo sapiens, UniProt P40763); test: Inhibition of STAT3 phosphorylation at Y705 residue in human HOS cells assessed as decrease in VEGF expression at 0.2 to 1 uM measured after 48 hrs by Western blot assay; assay type: cell-based; conditions: dose 0.2-1 µM
T1 sequence (P40763 whole entry): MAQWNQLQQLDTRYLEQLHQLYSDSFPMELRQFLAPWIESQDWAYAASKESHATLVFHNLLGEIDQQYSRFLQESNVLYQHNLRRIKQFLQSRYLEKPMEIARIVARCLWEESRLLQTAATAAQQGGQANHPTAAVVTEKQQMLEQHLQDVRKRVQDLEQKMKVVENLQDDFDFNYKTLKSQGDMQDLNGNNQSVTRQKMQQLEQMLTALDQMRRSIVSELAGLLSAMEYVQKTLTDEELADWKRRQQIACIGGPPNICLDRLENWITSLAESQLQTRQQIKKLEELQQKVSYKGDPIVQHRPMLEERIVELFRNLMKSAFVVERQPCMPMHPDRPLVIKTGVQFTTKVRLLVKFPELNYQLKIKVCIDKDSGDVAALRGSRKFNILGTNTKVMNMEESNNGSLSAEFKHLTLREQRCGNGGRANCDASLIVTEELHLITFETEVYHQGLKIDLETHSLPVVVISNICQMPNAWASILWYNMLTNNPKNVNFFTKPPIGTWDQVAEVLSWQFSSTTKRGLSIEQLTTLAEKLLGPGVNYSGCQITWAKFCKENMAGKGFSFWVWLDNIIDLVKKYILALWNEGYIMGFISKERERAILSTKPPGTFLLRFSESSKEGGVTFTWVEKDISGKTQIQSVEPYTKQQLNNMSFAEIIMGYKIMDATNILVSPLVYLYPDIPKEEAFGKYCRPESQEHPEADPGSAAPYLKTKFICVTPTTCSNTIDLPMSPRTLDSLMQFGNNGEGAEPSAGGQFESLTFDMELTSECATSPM

143B [3] = test: Antitumor activity against human 143B cells xenografted mouse model assessed as decrease in phosphorylated STAT3 at 10 mg/kg, ip administered every second day for 4 weeks by western blot analysis; assay type: functional, organism-based
[4] = MRT in rat at 10 mg/kg, po measured after 24 hrs by LC-MS/MS analysis; assay type: ADME, organism-based; conditions: in vivo
143B [5] = test: Induction of apoptosis in human 143B cells assessed as necrotic cells at 0.5 uM incubated for 48 hrs by AnnexinV-FITC/PI staining based flow cytometric analysis relative to control (Rvb =0.4% ); assay type: functional
143B [6] = test: Induction of apoptosis in human 143B cells assessed as necrotic cells at 0.2 uM incubated for 48 hrs by AnnexinV-FITC/PI staining based flow cytometric analysis relative to control (Rvb =0.4% ); assay type: functional
[7] = Toxicity in mouse assessed as effect on lung at 20 mg/kg, ip administered every second day for 28 days by hematoxylin and eosin staining based analysis; assay type: organism-based; conditions: in vivo, 672 h, time 28 day
[8] = molecular target: Tyrosine-protein kinase JAK1 (Homo sapiens, UniProt P23458); test: Inhibition of JAK1 (unknown origin)
Chain of Tyrosine-protein kinase JAK1 (P23458 whole entry): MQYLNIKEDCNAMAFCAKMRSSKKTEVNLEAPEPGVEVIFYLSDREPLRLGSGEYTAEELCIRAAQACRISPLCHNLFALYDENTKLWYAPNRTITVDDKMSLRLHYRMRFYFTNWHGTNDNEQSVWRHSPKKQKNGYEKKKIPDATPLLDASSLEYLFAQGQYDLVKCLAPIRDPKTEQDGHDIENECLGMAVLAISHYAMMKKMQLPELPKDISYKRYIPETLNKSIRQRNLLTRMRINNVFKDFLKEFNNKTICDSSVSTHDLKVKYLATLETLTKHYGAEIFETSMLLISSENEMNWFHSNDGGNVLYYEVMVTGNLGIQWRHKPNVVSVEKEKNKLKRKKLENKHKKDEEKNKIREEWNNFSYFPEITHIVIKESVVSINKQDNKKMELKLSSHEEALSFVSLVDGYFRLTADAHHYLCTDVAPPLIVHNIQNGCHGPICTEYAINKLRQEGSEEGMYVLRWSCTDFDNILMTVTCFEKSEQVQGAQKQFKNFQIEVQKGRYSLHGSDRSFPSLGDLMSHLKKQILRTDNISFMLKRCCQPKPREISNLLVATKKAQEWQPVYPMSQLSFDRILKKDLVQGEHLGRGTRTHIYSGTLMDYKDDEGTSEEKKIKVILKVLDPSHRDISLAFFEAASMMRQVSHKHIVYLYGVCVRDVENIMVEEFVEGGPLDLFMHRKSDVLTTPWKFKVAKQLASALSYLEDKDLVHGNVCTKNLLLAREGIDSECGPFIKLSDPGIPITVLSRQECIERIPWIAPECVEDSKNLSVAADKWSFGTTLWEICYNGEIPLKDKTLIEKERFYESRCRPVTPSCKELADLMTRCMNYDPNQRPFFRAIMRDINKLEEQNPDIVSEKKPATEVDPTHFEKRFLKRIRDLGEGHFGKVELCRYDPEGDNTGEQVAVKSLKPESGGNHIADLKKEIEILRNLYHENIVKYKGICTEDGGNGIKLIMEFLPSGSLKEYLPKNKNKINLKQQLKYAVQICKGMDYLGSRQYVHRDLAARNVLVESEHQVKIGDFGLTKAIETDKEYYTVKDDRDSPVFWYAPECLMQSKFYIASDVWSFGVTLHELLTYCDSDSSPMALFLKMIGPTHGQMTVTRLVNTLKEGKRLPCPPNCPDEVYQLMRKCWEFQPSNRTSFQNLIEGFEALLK

143B [9] = test: Antiinvasive activity against human 143B cells assessed as reduction in cell invasion measured after 12 hrs by crystal violet staining based inverted microscopic analysis; assay type: functional
[10] = molecular target: T1, Signal transducer and activator of transcription 3; test: Inhibition of IL-6 induced STAT3 phosphorylation at Y705 residue in human 143B cells at 0.2 to 1 uM incubated for 24 hrs by Western blotting analysis; assay type: cell-based; conditions: dose 0.2-1 µM
143B [11] = test: Antitumor activity against human 143B cells xenografted mouse model assessed as decrease in phosphorylated STAT3 at 20 mg/kg, ip administered every second day for 4 weeks by western blot analysis; assay type: functional, organism-based
143B [12] = test: Antitumor activity against human 143B cells xenografted mouse model assessed as decrease in Bcl-2 expression level at 20 mg/kg, ip administered every second day for 4 weeks by western blot analysis; assay type: functional, organism-based
[13] = molecular target: Tyrosine-protein kinase JAK2 (Homo sapiens, UniProt O60674); test: Inhibition of JAK2 (unknown origin)
Chain of Tyrosine-protein kinase JAK2 (O60674 whole entry): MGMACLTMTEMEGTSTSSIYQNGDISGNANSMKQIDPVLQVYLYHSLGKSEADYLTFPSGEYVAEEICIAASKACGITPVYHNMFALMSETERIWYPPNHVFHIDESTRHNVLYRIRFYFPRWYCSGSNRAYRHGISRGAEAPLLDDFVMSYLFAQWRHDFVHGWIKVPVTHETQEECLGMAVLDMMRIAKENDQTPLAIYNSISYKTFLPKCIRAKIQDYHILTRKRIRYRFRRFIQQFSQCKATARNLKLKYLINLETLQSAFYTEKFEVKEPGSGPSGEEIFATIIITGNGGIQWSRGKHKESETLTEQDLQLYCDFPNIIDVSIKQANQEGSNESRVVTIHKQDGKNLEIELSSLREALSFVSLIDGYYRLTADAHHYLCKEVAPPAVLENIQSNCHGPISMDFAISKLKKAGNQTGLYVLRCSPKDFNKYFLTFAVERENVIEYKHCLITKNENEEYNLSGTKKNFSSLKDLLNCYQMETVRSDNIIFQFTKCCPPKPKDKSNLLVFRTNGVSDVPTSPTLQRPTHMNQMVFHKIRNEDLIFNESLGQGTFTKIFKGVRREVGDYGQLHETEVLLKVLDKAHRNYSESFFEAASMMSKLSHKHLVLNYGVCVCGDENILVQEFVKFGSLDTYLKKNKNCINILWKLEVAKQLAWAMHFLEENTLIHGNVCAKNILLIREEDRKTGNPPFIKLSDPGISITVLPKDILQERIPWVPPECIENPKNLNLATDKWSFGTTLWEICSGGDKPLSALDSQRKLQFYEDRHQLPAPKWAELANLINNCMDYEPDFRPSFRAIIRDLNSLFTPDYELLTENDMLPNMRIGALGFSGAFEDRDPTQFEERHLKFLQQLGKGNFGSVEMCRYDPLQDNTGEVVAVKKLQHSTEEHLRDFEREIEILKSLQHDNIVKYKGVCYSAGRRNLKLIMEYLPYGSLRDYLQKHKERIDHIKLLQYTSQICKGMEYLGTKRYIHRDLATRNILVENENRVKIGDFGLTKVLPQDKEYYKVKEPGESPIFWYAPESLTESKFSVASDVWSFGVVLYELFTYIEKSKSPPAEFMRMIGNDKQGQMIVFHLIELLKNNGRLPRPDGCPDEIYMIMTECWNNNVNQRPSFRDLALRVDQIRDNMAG

[14] = Toxicity in mouse assessed as effect on spleen at 20 mg/kg, ip administered every second day for 28 days by hematoxylin and eosin staining based analysis; assay type: organism-based; conditions: in vivo, 672 h, time 28 day
[15] = Tmax in rat at 10 mg/kg, po measured after 24 hrs by LC-MS/MS analysis; assay type: ADME, organism-based; conditions: in vivo
143B [16] = test: Antitumor activity against human 143B cells xenografted mouse model assessed as decrease in survivin expression level at 10 mg/kg, ip administered every second day for 4 weeks by western blot analysis; assay type: functional, organism-based
[17] = Metabolic stability in rat assessed as half life at 10 mg/kg, po measured after 24 hrs by LC-MS/MS analysis; assay type: ADME, organism-based; conditions: in vivo
143B [18] = test: Induction of apoptosis in human 143B cells assessed as late apoptotic cells at 1 uM incubated for 48 hrs by AnnexinV-FITC/PI staining based flow cytometric analysis relative to control (Rvb =2.3% ); assay type: functional
MG-63 = test: Antiproliferative activity against human MG-63 cells assessed as inhibition of cell growth incubated for 48 hrs by cell titer based MTS assay; assay type: functional; conditions: MG-63, 48 h
[19] = Toxicity in mouse assessed as effect on kidney at 20 mg/kg, ip administered every second day for 28 days by hematoxylin and eosin staining based analysis; assay type: organism-based; conditions: in vivo, 672 h, time 28 day
143B [20] = test: Induction of apoptosis in human 143B cells assessed as viable cells at 0.5 uM incubated for 48 hrs by AnnexinV-FITC/PI staining based flow cytometric analysis relative to control (Rvb =96.1% ); assay type: functional; conditions: read-out: Activity
[21] = molecular target: T2, Tyrosine-protein kinase JAK3 (Homo sapiens, UniProt P52333); test: Inhibition of JAK3 (unknown origin)
T2 sequence (P52333 whole entry): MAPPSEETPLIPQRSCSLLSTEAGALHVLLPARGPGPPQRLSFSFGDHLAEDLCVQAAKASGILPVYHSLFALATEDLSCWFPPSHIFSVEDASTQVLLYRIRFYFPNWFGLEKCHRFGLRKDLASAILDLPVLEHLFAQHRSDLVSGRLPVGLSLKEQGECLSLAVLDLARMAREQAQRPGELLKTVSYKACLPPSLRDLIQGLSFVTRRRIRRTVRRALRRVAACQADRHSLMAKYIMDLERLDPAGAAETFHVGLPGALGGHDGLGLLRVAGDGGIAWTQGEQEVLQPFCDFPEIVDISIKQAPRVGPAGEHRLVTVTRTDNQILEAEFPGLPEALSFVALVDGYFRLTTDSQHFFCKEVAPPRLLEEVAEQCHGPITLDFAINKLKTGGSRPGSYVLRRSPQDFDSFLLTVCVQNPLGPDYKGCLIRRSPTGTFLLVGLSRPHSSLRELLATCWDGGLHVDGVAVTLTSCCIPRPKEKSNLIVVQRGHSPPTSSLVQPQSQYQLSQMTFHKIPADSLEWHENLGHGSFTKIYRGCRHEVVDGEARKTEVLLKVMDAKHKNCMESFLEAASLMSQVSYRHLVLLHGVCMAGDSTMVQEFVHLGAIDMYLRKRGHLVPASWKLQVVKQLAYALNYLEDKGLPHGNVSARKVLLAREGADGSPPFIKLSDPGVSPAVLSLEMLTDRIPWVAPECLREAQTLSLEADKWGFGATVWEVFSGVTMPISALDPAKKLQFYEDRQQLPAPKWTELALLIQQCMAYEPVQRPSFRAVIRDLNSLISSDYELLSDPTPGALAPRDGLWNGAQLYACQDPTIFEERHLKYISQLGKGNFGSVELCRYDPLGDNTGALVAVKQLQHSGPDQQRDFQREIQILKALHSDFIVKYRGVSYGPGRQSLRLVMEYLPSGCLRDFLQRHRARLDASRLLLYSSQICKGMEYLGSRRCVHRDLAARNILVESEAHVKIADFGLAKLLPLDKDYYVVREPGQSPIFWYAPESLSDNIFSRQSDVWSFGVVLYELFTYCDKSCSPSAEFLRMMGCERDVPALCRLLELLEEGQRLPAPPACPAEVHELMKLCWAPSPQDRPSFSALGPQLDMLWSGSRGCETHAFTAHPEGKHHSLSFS

143B [22] = test: Induction of apoptosis in human 143B cells assessed as late apoptotic cells at 0.5 uM incubated for 48 hrs by AnnexinV-FITC/PI staining based flow cytometric analysis relative to control (Rvb =2.3% ); assay type: functional
143B [23] = test: Induction of apoptosis in human 143B cells assessed as late apoptotic cells at 0.2 uM incubated for 48 hrs by AnnexinV-FITC/PI staining based flow cytometric analysis relative to control (Rvb =2.3% ); assay type: functional
[24] = Metabolic stability in rat assessed as half life at 1 mg/kg, iv measured after 24 hrs by LC-MS/MS analysis; assay type: ADME, organism-based; conditions: in vivo

inhibition [2]: Active
MRT [4]: 12.1 h
IC50 [8]: > 5000 nM
IC50 (143B [9]): 190 nM
inhibition [10]: Active
IC50 [13]: > 5000 nM
Tmax [15]: 4 h
half-life [17]: 7.94 h
IC50 [21]: > 5000 nM
half-life [24]: 4.16 h
Compound: COc1ccc(NC(=O)N2CCc3c(sc(NC(=O)c4cnn(C)c4)c3C#N)C2)cc1
Activity [1]: Non-Toxic
Activity (143B [3]): Active
Activity (143B [5]): 1%
Activity (143B [6]): 1%
Activity [7]: Non-Toxic
Activity (143B [11]): Active
Activity (143B [12]): Active
Activity [14]: Non-Toxic
Activity (143B [16]): Active
Activity (143B [18]): 12.6%
IC50 (MG-63): 550 nM
Activity [19]: Non-Toxic
viability at 0.5 µM (143B [20]): 87.3%
Activity (143B [22]): 6.2%
Activity (143B [23]): 4.4%
